Source: article PMC10897929 (2024)

Columns and labels:
[1] = test system: CSS.3_cut3 (DNA, aptamer) GGACGACGCCAGAAGTTTACGAGGATATGGTAACATAGTCGT; assay: BLI, steady state fit; conditions: Na+ 123 mM (NaCl), K+ 3.5 mM, Ca2+ 2.5 mM, Mg2+ 0.7 mM; sISF, 10 mM HEPES, 30 °C
[2] = test system: CSS.3_cut5 (DNA, aptamer) GGACGACGCCAGAAGTTTACGAGGATATGGTAACATAGTC; assay: BLI, steady state fit; conditions: Na+ 123 mM (NaCl), K+ 3.5 mM, Ca2+ 2.5 mM, Mg2+ 0.7 mM; sISF, 10 mM HEPES, 30 °C

`C[C@]12CCC(=O)C=C1CC[C@@H]1[C@@H]2[C@@H](O)C[C@@]2(C)[C@H]1CC[C@]2(O)C(=O)CO` showed a KD [1] of 990 nM and a KD [2] of 4200 nM.
